Laboratory results reported in ChEMBL document CHEMBL5614423, “Proximal fleximer analogues of 2'-deoxy-2'-fluoro-2'-methyl purine nucleos(t)ides: Synthesis and preliminary pharmacokinetic and antiviral evaluation” (Bioorg Med Chem, 2024).
The source made the active and inactive calls. The rule behind the calls is not given here.

Assays:
[1] = tested on: Cytomegalovirus; experiment: Antiviral activity against Cytomegalovirus upto 150 uM; format: functional, organism-based
[2] = tested on: Middle East respiratory syndrome-related coronavirus; experiment: Antiviral activity against MERS CoV upto 100 uM; format: functional, organism-based
[3] = tested on: Chikungunya virus; experiment: Antiviral activity against Chikungunya virus upto 100 uM; format: functional, organism-based
[4] = tested on: dengue virus type 2; experiment: Antiviral activity against Dengue virus 2 upto 100 uM; format: functional, organism-based
[5] = tested on: Nipah virus; experiment: Antiviral activity against Nipah virus upto 100 uM; format: functional, organism-based; conditions: Henipavirus nipahense
[6] = tested on: Zaire ebolavirus; experiment: Antiviral activity against Zaire Ebola virus; format: functional, organism-based
[7] = tested on: Human alphaherpesvirus 1; experiment: Antiviral activity against HSV 1 upto 150 uM; format: functional, organism-based
[8] = tested on: Human gammaherpesvirus 4; experiment: Antiviral activity against Epstein Barr virus upto 150 uM; format: functional, organism-based
[9] = tested on: Zaire ebolavirus; experiment: Antiviral activity against Zaire Ebola virus upto 100 uM; format: functional, organism-based
[10] = AUC in CD-1 mouse at 100 mg/kg measured for 24 hrs by MS analysis; format: ADME, organism-based; conditions: in vivo
[11] = Toxicity in CD-1 mouse assessed as drug tolerance at 100 to 300 mg/kg, ip for 3 days; format: organism-based; conditions: in vivo, 72 h, dose 100-300 mg/kg, time 3 day
[12] = Toxicity in CD-1 mouse assessed as occurence of adverse event at 100 to 300 mg/kg, ip for 3 days; format: organism-based; conditions: in vivo, 72 h, dose 100-300 mg/kg, time 3 day
[13] = Half life in CD-1 mouse at 100 mg/kg by MS analysis; format: ADME, organism-based; conditions: in vivo

Row | Compound | Activity [1] | Activity [2] | Activity [3] | Activity [4] | Activity [5] | EC50 [6] [µM] | Activity [7] | Activity [8] | Activity [9] | AUC [10] [ng·h/mL] | Activity [11] | Activity [12] | half-life [13] [h]
1 | CNc1nc(N)ncc1-c1cn([C@@H]2O[C@H](CO[P@@](=O)(N[C@@H](C)C(=O)OC(C)C)Oc3ccccc3)[C@@H](O)[C@@]2(C)F)cn1 | inactive | inactive | inactive | inactive | inactive | 30 | inactive | inactive | – | – | – | – | –
2 | CNc1nc(N)ncc1-c1cn([C@@H]2O[C@H](CO)[C@@H](O)[C@@]2(C)F)cn1 | inactive | inactive | inactive | inactive | inactive | – | inactive | inactive | inactive | 36000 | Non-Toxic | Non-Toxic | 1
